Data reported in US8598122B2, “Antagonistic peptides for frizzled-1 and frizzled-2” (Universiteit Maastricht, priority 2009, dated 2013).
Where a SMILES comes first, the peptide text is derived from it. Bridges are numbered along the chain shown (N, C = ends). Where no end group is shown, it is not given here. rhodamine = not defined here

Experiments:
frizzled-1 (rFzd-1) = target: T1, frizzled-1 (rFzd-1) (Rattus norvegicus, UniProt Q08463); experiment: Activity assay: Wnt3a-induced luciferase (superTOPflash) in HEK cells transfected with frizzled-1; type: cell-based; settings: for Blocking of Wnt3a-induced luciferase activity, rFzd-1: peptide 1.10^−8 M
T1 construct: expressed in transfected cells; host or cells: HEK293 superTOPflash (human embryonic kidney), transient, pcDNA3.1/hygro
Description: (§1) Human embryonic kidney (HEK) cells were used for screening. These cells have a luciferase construct stably transfected into the genome (see FIG. 2A), such that when the frizzled receptor is activated and β-catenin is increased, the luciferase is activated by transcription and light can be measured.
(§2) The peptides were tested by transfecting the frizzled-1 or the frizzled-2 receptor and addition of UM206(S-S) to the cell culture. For testing antagonistic activity, UM206 was added and the natural ligand Wnt3a was added, which is a natural stimulus for the canonical pathway.
(§3) Day 2: Transfection 12-well plates • heat Fugene6 and DNA 15 minutes at RT • 2 ml serum-free medium in tube • add 3μl fugene • add 2 μg DNA • incubate 30 minutes at RT • wash with PBS • add 50 μtransfectiemix • add 1 ml antibiotica-free medium
(§4) Day 3: Add conditioned medium or UM206
(§5) Day 4: Luciferase activity measurements • remove medium • wash with PBS • add 500 μl ⅕ lysisbuffer • shake for 60 minutes • centrifuge in tube • 20 μl lysaat and 50 μl luciferase in new tube for measurement • vortex • measure
(§6) To determine the inhibitory constant of UM206-8, HEK293-superTOPflash cells were transfected with either rFzd-1 or -2 and incubated with Wnt3a (10^−9M) in the presence of increasing concentrations of either of the peptides (FIG. 15). For UM206, a biphasic inhibition curve was observed that was best fitted with a two-binding-state model.
(§7) The cell lines were cultured in 75 cm^2 culture flasks (Corning, Schiphol, the Netherlands) in Dulbeco's modified essential medium with L-glutamine (2 mM), 10% fetal calf serum (Invitrogen, Merelbeke, Belgium), and 1% gentamycin (Sigma-Aldrich, Zwijndrecht, The Netherlands). Before starting the experiment, the cell lines were treated with plasmocin 25 μg/ml (Invivogen, Toulose, France) and tested with a mycoalert mycoplasma detection kit (Lonza, Rockland Me., USA). Cells were transiently transfected with Fugene6 (Roche, Indianapolis Ind., USA) with plasmid DNA, pcDNA3.1/hygro (Invitrogen) with frizzled-1/2/4 or Wnts 3a-5a or with pcDNA3.0 (Invitrogen) containing the β-catenin or frizzled-5 sequence. After transfection, the cells were cultured for 24 hours in conditioned medium, collected from the cultured L-cells, L-cells with Wnt3a or 5a (Invitrogen). At the same moment the antagonist was added.

frizzled receptor = experiment: Activity on the frizzled receptor (activity assay of Example 1), result in words; type: cell-based
Description: as §1, §2
Analogues of UM206 were prepared by solid phase peptide synthesis. Each amino acid residue was sequentially replaced by an alanine residue and antagonistic activity of the analogue was tested as described in the activity assay of Example 1. […] Titles indicate which amino acid residue was substituted by an alanine residue.

frizzled-2 (rFzd-2) = target: T2, frizzled-2 (rFzd-2) (Rattus norvegicus, UniProt Q08464); experiment: Activity assay: Wnt3a-induced luciferase (superTOPflash) in HEK cells transfected with frizzled-2; type: cell-based; settings: for Blocking of Wnt3a-induced luciferase activity, rFzd-2: peptide 1.10^−8 M
T2 construct: expressed in transfected cells; host or cells: HEK293 superTOPflash (human embryonic kidney), transient, pcDNA3.1/hygro
Description: as §1, §2, §3, §4, §5, §6, §7

hFzd-4 = target: T3, hFzd-4 (Homo sapiens, UniProt Q9ULV1); experiment: Luciferase activity in HEK293 superTOPflash cells overexpressing hFzd-4; type: cell-based; settings: FIG. 3, Panel F
T3 construct: expressed in transfected cells; host or cells: HEK293 superTOPflash, transient, pcDNA3.1/hygro
T3 sequence (Q9ULV1 37-537): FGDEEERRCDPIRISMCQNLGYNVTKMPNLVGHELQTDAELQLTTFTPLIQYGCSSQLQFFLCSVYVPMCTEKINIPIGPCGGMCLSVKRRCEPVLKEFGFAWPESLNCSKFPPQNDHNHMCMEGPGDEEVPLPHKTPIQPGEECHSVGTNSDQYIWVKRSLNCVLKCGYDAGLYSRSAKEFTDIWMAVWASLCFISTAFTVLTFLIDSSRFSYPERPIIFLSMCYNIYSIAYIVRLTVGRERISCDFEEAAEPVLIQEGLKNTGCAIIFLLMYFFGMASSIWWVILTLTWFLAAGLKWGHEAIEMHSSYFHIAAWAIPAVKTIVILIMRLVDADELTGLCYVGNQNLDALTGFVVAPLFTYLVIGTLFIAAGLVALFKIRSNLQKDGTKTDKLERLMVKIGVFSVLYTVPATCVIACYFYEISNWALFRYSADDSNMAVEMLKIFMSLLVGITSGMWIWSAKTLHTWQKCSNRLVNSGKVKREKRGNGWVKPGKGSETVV
Description: (§8) In FIG. 3, Panel E, the efficacy of UM206 to block the Wnt3a-induced activation of luciferase activity in HEK293 superTOPflash cells transfected with different Fzds is shown.
as §7

hFzd-5 = target: T4, hFzd-5 (Homo sapiens, UniProt Q13467); experiment: Luciferase activity in HEK293 superTOPflash cells overexpressing hFzd-5; type: cell-based; settings: FIG. 3, Panel F
T4 construct: expressed in transfected cells; host or cells: HEK293 superTOPflash, transient, pcDNA3.0
Description: as §8, §7

Fzd-1 and -2 = experiment: UM206-Rhodamine binding to frozen sections of mouse kidney and gut and its blocking; settings: 1.10^−8 M
Description: Specificity of the binding site was confirmed by prior incubation of the tissue sections with UM207 (1.10^−8 M) or recombinant Wnt3a (1.10^−8 M).
One-half of the hearts of the mice was embedded in paraffin and cut in 4 μm sections. The paraffin sections were rehydrated and washed in PBS. One section was stained with AZAN, allowing an accurate determination of the infarct size. To visualize the myofibroblasts in the infarct area, the sections were incubated with an antibody directed against a-smooth muscle actin (Sigma-Aldrich), followed by incubation with the peroxidase-conjugated secondary antibody (Vector laboratories). Nuclei were visualized by hematoxylin. Photos were taken with a Leica (CTR500, 63x/0.85) camera and analyzed with the Quantimet program (QWin/QGo). An examiner blinded to the groups of the animals obtained all measurements. For the experiments with Rhodamine-labeled UM206, frozen sections (4 μm) of mouse kidney and small intestine were used.

[1] = system: Wnt/Fzd signal transduction cascade; experiment: Luciferase activity in HEK293-superTOPflash cells (Wnt/Fzd signal transduction cascade); type: cell-based, human; settings: for Luciferase activity induced by the peptide by itself: without Wnt3a
Source text: as §1
Three areas of high homology that contained two cysteines are underlined (UM207), (UM208) and (UM206). In FIGS. 9B through 9D, the inhibitory effect of these three peptides on Wnt3a-induced luciferase activity in HEK293-superTOPflash is shown. […] Again, the peptides by themselves had no effect on the luciferase activity.

[2] = system: C-FIT cells (cardiac fibroblasts immortalized with telomerase); experiment: Migration (wound/scratch) assay with C-FIT cells overexpressing Fzd-1 or -2; type: cell-based, rat
Description: For this assay, we used rat cardiac fibroblasts, which were immortalized with telomerase, the C-FIT cell line. This cell line was characterized previously and resembles features of primary cardiac fibroblasts. C-FIT cells were plated, treated when they were 70% confluent and a wound was made with a pipette tip at the moment of 100% confluence.
This assay was first tested with the natural ligand Wnt3a, in combination with frizzled-1 and -2 overexpression. […] Next step was to see whether the antagonist could counteract this. (See FIG. 4.)
Day 1: • Plate cells in 12-well plates
Day 2: • Transfection (see protocol)
Day 3: • Addition of conditioned medium
Day 4: • Make a scratch. This is time point zero.
Making pictures every six hours and analyzing the scratch width.
Cells were plated on day 0, and cultured until 70% confluence before transfection or treatment. Migration assays started 48 hours after transfection and/or treatment. The time point where the scratch was made, is indicated as 0 hours. Scratch width was measured at this time point, and also after 6, 12, and 24 hours.

T1 sequence (Q08463 69-641): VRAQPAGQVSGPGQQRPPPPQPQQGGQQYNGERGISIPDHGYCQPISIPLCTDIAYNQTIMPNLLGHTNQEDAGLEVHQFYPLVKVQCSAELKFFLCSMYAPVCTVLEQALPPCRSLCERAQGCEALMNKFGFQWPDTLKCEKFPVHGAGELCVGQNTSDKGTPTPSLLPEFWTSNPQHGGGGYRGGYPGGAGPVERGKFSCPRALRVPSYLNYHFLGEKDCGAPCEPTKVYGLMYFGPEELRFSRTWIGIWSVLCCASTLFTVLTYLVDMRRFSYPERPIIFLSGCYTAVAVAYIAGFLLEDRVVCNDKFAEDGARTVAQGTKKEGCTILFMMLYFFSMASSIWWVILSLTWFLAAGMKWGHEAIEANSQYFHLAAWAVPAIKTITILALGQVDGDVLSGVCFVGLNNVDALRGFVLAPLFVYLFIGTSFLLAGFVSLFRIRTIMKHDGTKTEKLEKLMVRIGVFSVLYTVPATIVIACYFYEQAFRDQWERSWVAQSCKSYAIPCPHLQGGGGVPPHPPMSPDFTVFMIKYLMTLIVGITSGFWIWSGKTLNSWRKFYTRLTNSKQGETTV
T2 sequence (Q08464 29-570): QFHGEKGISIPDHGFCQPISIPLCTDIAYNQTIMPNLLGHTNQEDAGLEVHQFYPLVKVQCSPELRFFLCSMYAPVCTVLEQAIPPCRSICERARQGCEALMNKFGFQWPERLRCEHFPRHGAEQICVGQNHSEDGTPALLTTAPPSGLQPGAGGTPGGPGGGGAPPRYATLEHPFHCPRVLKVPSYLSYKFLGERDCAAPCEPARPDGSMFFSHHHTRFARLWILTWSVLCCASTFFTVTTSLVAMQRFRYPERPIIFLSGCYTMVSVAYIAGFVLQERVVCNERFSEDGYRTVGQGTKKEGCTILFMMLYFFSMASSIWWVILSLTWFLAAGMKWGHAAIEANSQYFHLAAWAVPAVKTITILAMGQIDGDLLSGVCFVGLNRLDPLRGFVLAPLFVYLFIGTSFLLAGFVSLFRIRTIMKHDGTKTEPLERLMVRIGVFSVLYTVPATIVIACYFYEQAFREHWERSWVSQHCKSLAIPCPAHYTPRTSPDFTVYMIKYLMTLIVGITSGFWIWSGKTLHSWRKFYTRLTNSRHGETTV
T4 sequence (Q13467 27-585): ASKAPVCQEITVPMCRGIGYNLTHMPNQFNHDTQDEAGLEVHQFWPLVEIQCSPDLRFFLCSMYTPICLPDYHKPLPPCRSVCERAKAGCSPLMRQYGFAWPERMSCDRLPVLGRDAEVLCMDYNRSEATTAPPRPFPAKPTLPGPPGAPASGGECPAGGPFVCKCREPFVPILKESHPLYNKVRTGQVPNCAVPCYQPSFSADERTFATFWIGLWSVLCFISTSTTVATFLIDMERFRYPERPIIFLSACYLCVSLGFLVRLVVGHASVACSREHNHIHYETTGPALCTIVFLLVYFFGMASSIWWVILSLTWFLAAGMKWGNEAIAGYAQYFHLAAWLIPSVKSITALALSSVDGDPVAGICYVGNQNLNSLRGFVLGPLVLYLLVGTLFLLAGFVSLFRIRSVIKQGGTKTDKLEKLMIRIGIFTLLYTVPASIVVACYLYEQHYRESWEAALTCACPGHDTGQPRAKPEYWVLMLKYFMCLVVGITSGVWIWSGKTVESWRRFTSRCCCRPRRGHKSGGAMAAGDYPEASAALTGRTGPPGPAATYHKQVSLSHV

CC[C@H](C)[C@H](NC(=O)CNC(=O)[C@H](Cc1c[nH]cn1)NC(=O)[C@H](CO)NC(=O)[C@H](CO)NC(=O)[C@@H](NC(=O)[C@H](CC(N)=O)NC(=O)[C@H](CS)NC(C)=O)C(C)C)C(=O)N[C@@H](CC(=O)O)C(=O)NCC(=O)N[C@@H](CS)C(=O)N[C@@H](CC(=O)O)C(=O)N[C@@H](CC(C)C)C(N)=O [CNVSSHGIDGCDL] (Ac-CNVSSHGIDGCDL-NH2; N-terminus assumed)
% of inhibition for Fzd-1 (frizzled-1 (rFzd-1); 1.0): 45.32% | Activity on the frizzled receptor (in words) (frizzled receptor): showed antagonistic properties too, albeit that the potency was lower than that of UM206 | % of inhibition for Fzd-2 (frizzled-2 (rFzd-2); 1.0): 62.41%

CSCC[C@@H]1NC(=O)CNC(=O)[C@H](CCC(=O)O)NC(=O)[C@H](CO)NC(=O)[C@H]([C@@H](C)O)NC(=O)[C@H](CCCCN)NC(=O)[C@H](CC(N)=O)NC(=O)[C@@H](NC(C)=O)CSSC[C@@H](C(=O)N[C@@H](CCC(=O)O)C(=O)N[C@@H](CC(C)C)C(N)=O)NC(=O)CNC(=O)[C@H](CC(=O)O)NC1=O [UM206(S-S)] (Ac-CNKTSEGMDGCEL-NH2; disulfide 1-11)
Agonist activity, frizzled-1 (frizzled-1 (rFzd-1); FIG. 3, Panel F): specific agonist | Agonist activity, frizzled-4 (hFzd-4): not for frizzled-4 or frizzled-5 | Agonist activity, frizzled-2 (frizzled-2 (rFzd-2); FIG. 3, Panel F): specific agonist | Agonist activity, frizzled-5 (hFzd-5): not for frizzled-4 or frizzled-5

CC[C@H](C)[C@H](NC(=O)CNC(C)=O)C(=O)N[C@@H](CCCCN)C(=O)N[C@@H](CCC(=O)O)C(=O)N[C@@H](CS)C(=O)N[C@@H](CCC(N)=O)C(=O)N[C@@H](Cc1ccc(O)cc1)C(=O)N[C@@H](CCC(N)=O)C(=O)N[C@@H](Cc1ccccc1)C(=O)N[C@@H](CCCNC(=N)N)C(=O)N[C@@H](Cc1c[nH]cn1)C(=O)N[C@@H](CCCNC(=N)N)C(=O)N[C@@H](CCCNC(=N)N)C(=O)N[C@@H](Cc1c[nH]c2ccccc12)C(=O)N[C@@H](CC(N)=O)C(=O)N[C@@H](CS)C(=O)N[C@@H](CO)C(=O)N[C@H](C(=O)N[C@H](C(=O)N[C@@H](CC(=O)O)C(N)=O)C(C)C)[C@@H](C)O [UM207] (Ac-GIKECQYQFRHRRWNCSTVD-NH2)
Blocking of Wnt3a-induced luciferase activity, rFzd-1 (frizzled-1 (rFzd-1)): blocked almost completely | Activity on the frizzled receptor (in words) (frizzled receptor): potent antagonist | Blocking of UM206-rhodamine binding by prior incubation (Fzd-1 and -2): completely abolished the binding | Blocking of Wnt3a-induced luciferase activity, rFzd-2 (frizzled-2 (rFzd-2)): blocked almost completely | Luciferase activity induced by the peptide by itself [1]: none of the three peptides by itself could induce an increase in luciferase activity

CC(=O)NCC(=O)N[C@@H](CO)C(=O)N[C@@H](CS)C(=O)N[C@@H](CO)C(=O)N[C@@H](CC(C)C)C(=O)N[C@@H](CCCCN)C(=O)N[C@H](C(=O)N[C@@H](CS)C(=O)N[C@@H](Cc1c[nH]c2ccccc12)C(=O)N[C@@H](CC(C)C)C(=O)N[C@@H](CCC(N)=O)C(=O)N[C@@H](CC(C)C)C(=O)N[C@@H](C)C(=O)N[C@@H](CC(=O)O)C(N)=O)[C@@H](C)O [UM208, GSCSLKTCWLQLAD] (Ac-GSCSLKTCWLQLAD-NH2)
Blocking of Wnt3a-induced luciferase activity, rFzd-1 (frizzled-1 (rFzd-1)): blocked almost completely | Blocking of Wnt3a-induced luciferase activity, rFzd-2 (frizzled-2 (rFzd-2)): blocked almost completely | Luciferase activity induced by the peptide by itself [1]: none of the three peptides by itself could induce an increase in luciferase activity

UM206-rhodamine: UM206 with rhodamine attached to Lys^3 (Ac-CNK(rhodamine)TSEGMDGCEL-NH2; reading uncertain; also: printed as Ac-Cys-Asn-Lys-Thr-Ser-Glu-Gly-Met-Asp-Gly-Cys-Glu-Leu-NH2)
Staining of frozen sections of mouse kidney and gut (Fzd-1 and -2; 15 minutes, two-foton microscopy): staining of tubular epithelium and panneth cells

UM207 S-S: UM207 forced to form a cyclic structure by inducing a S-S bond between the two cysteine residues (GIKECQYQFRHRRWNCSTVD-NH2; disulfide 5-16 (inferred); not fully specified (N-terminus))
Activity on the frizzled receptor (in words) (frizzled receptor): potent agonist

Wnt3a
Blocking of UM206-rhodamine binding by prior incubation (Fzd-1 and -2): completely abolished the binding | Increase of the luciferase activity by natural ligand in combination with frizzled-2 (frizzled-2 (rFzd-2); concentration-dependent): twelve-fold | Effect of Wnt protein on migration of CFIT overexpressing rFzd-1 or -2 [2]: attenuated the migration | Increase of luciferase activity on addition of Wnt3a ([1]; HEK293-superTOPflash, no Fzd transfection): ~450 fold

B1: Wnt5a: natural ligand (Wnt protein) for frizzled-1 and frizzled-2 (protein, listed as Homo sapiens)
chain: FFLMALATFFSFAQVVIEANSWWSLGMNNPVQMSEVHIIGAQPLCSQLAGLSQGQKKLCHLYQDHMQYIGEGAKTGIKECQYQFRHRRWNCSTVDNTSVFGRVMQIGSRETAFTYAVSAAGVVNAMSRACREGELSTCGCSRAARPKDLPRDWLWGGCGDNIDYGYRFAKEFVDARERERIHAKGSYESARILMNLHNNEAGRRTVYNLADVACKCHGVSGSCSLKTCWLQLADFRKVGDALKEKYDSAAAMRLNSRGKLVQVNSRFNSPTTQDLVYIDPSPDYCVRNESTGSLGTQGRLCNKTSEGMDGCELMCCGRGYDQFKTVQTERCHCKFHWCCYVKCKKCTEIVDQFVCK
Effect of Wnt protein on migration of CFIT overexpressing rFzd-1 or -2 [2]: attenuated the migration
